Where two headings read alike, the source gives them in different places. Non-standard residues stand in square brackets, D forms with d. Residues, ends and D or L forms follow the SMILES beside them. *: point of attachment. GlcA(β-D,1-O-dodecyl) = CCCCCCCCCCCCO[C@@H]1O[C@H](C(=O)*)[C@@H](O)[C@H](O)[C@H]1O; αMeF = C[C@](N)(Cc1ccccc1)C(=O)O; Aib = CC(C)(N)C(=O)O
Key:
[1] = molecular target: T1, glucagon R (Homo sapiens, UniProt P47871); experiment: Cerep cellular assay, stimulation of cAMP levels, glucagon (human, cloned into CHO cells); format: cell-based
T1 construct: host or cells: CHO cells
Description: Compounds were weighed precisely in an amount of approximately 1 mg and assayed in standard cellular assays (Cerep SA). The readout is the amount of cAMP generated in the cells treated with the test compounds, in either agonist or antagonist mode. […] The assays are described in Chicchi, G. G., et al. (1997) J Biol Chem 272:7765-7769 and Runge, S., et al. (2003) Br J Pharmacol 138:787-794.

[2] = Plasma protease stability; format: in vitro ADME; conditions: incubation at 30 degC, t=0-8 hrs, LC-MS (FIG. 8)
Description: Standard and QC Sample Preparation: i. […] Make standard working solutions in 50% CH3CN with the stock solution. […] Spiked 10 μL of the working solutions into 90 μL blank plasma and vortex them, iv. […] Transfer the supernatant into an HPLC injection plate for loading on the HPLC column, vi.

[3] = test system: db/db mice; experiment: In vivo assay in db/db mice (blood glucose, body weight, food consumption)
[4] = molecular target: T1, glucagon R; experiment: DiscoveRx LeadHunter cellular assay, cAMP stimulation, glucagon receptor; format: cell-based; conditions: human receptor cloned into CHO cells
Description: (§1) A further series of cellular assays were carried out using standard cellular assays (DiscoveRx, LeadHunter assays) using readout of cAMP stimulation or arrestin activation. Compounds were weighed precisely in an amount of approximately 1 mg and shipped to DiscoveRx for dilution and assay.

[5] = molecular target: T2, GLP-1 R (Homo sapiens, UniProt P43220); experiment: DiscoveRx LeadHunter cellular assay, cAMP stimulation, GLP-1 receptor; format: cell-based; conditions: human receptor cloned into CHO cells
T2 construct: host or cells: CHO cells
T2 sequence (P43220 24-463): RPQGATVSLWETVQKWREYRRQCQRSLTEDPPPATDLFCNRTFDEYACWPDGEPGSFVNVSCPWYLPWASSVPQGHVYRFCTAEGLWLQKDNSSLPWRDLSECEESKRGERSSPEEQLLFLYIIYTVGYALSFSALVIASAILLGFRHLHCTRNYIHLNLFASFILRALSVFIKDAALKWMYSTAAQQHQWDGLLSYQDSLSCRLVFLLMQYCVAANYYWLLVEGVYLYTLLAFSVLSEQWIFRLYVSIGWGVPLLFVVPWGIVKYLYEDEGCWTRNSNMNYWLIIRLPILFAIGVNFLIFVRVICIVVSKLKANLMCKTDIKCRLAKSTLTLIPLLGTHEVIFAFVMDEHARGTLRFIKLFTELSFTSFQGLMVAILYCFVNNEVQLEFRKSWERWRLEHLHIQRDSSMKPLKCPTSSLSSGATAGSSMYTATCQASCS
Description: as §1

T1 sequence (P47871 26-477): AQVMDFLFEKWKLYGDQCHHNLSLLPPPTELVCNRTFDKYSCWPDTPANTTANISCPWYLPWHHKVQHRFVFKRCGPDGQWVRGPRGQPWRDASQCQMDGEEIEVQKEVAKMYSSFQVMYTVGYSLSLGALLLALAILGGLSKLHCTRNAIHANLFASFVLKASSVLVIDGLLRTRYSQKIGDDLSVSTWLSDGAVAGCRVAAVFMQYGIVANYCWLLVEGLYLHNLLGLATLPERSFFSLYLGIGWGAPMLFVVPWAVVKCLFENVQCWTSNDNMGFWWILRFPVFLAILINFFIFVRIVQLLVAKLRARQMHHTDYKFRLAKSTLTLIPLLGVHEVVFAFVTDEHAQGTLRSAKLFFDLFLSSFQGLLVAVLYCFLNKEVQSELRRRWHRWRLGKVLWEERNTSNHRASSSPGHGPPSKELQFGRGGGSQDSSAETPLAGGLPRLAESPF

CCCCCCCCCCCCO[C@@H]1O[C@H](C(=O)NCCCC[C@H](NC(=O)C(C)(C)NC(=O)[C@H](CC(=O)O)NC(=O)[C@H](CC(C)C)NC(=O)[C@H](Cc2ccc(O)cc2)NC(=O)[C@H](CCCCN)NC(=O)[C@H](CO)NC(=O)[C@H](Cc2ccc(O)cc2)NC(=O)[C@H](CC(=O)O)NC(=O)[C@H](CO)NC(=O)[C@@H](NC(=O)[C@](C)(Cc2ccccc2)NC(=O)[C@@H](NC(=O)CNC(=O)[C@H](CCC(N)=O)NC(=O)C(C)(C)NC(=O)[C@@H](N)Cc2c[nH]cn2)[C@@H](C)O)[C@@H](C)O)C(N)=O)[C@@H](O)[C@H](O)[C@H]1O [EU-A391] (H-H[Aib]QGT[αMeF]TSDYSKYLD[Aib]K(GlcA(β-D,1-O-dodecyl))-NH2; N-terminus assumed)
GLCR cellular response [1]: does not change

CCCCCCCCCCCCO[C@@H]1O[C@H](C(=O)NCCCC[C@H](NC(=O)[C@@H](NC(=O)[C@H](Cc2ccccc2)NC(=O)[C@H](CCC(=O)O)NC(=O)[C@@H]2CCCCNC(=O)CC[C@H](NC(=O)[C@H](CC(=O)O)NC(=O)[C@H](CC(C)C)NC(=O)[C@H](Cc3ccc(O)cc3)NC(=O)[C@H](CCCCN)NC(=O)[C@H](CO)NC(=O)[C@H](Cc3ccc(O)cc3)NC(=O)[C@H](CC(=O)O)NC(=O)[C@H](CO)NC(=O)[C@@H](NC(=O)[C@H](Cc3ccccc3)NC(=O)[C@@H](NC(=O)CNC(=O)[C@H](CCC(N)=O)NC(=O)C(C)(C)NC(=O)[C@@H](N)Cc3c[nH]cn3)[C@@H](C)O)[C@@H](C)O)C(=O)N[C@@H](CCC(N)=O)C(=O)N[C@@H](C)C(=O)N[C@@H](C)C(=O)N2)[C@@H](C)CC)C(=O)N[C@@H](Cc2c[nH]c3ccccc23)C(=O)N[C@@H](CC(C)C)C(=O)N[C@@H](CC(C)C)C(=O)N[C@@H](CCC(N)=O)C(=O)N[C@H](C(N)=O)[C@@H](C)O)[C@@H](O)[C@H](O)[C@H]1O [EU-A993, His1-Aib2-Gln3-Gly4-Thr5-Phe6-Thr7-Ser8-Asp9-Tyr10-Ser11-Lys12-Tyr13-Leu14-Asp15-Glu*16-Gln17-Ala18-Ala19-Lys*20-Glu21-Phe22-Ile23-Lys(N-omega(1-dodecylbeta-D-glucuronyl))24-Trp25-Leu26-Leu27-Gln28-Thr29-NH2]
amount of intact compound in the human plasma versus time [2]: essentially no change over 8 hrs
db/db mice - Mean Blood Glucose ([3]; 250 nmole/kg s.c., 0 hr): 503 mg/dL
db/db mice - Mean Blood Glucose ([3]; 250 nmole/kg s.c., 10 hr): 305 mg/dL
db/db mice - Mean Blood Glucose ([3]; 250 nmole/kg s.c., 24 hr): 324 mg/dL
db/db mice - Mean Blood Glucose ([3]; 250 nmole/kg s.c., 48 hr): 426 mg/dL

CCCCCCCCCCCCO[C@@H]1O[C@H](CO[C@H]2O[C@H](C(=O)NCCCC[C@H](NC(=O)[C@@H](NC(=O)[C@H](Cc3ccccc3)NC(=O)[C@H](CCC(=O)O)NC(=O)[C@@H]3CCCCNC(=O)CC[C@H](NC(=O)[C@H](CC(=O)O)NC(=O)[C@H](CC(C)C)NC(=O)[C@H](Cc4ccc(O)cc4)NC(=O)[C@H](CCCCN)NC(=O)[C@H](CO)NC(=O)[C@H](Cc4ccc(O)cc4)NC(=O)[C@H](CC(=O)O)NC(=O)[C@H](CO)NC(=O)[C@@H](NC(=O)[C@H](Cc4ccccc4)NC(=O)[C@@H](NC(=O)CNC(=O)[C@H](CCC(N)=O)NC(=O)C(C)(C)NC(=O)[C@@H](N)Cc4c[nH]cn4)[C@@H](C)O)[C@@H](C)O)C(=O)N[C@@H](CCC(N)=O)C(=O)N[C@@H](C)C(=O)N[C@@H](C)C(=O)N3)[C@@H](C)CC)C(=O)N[C@@H](Cc3c[nH]c4ccccc34)C(=O)N[C@@H](CC(C)C)C(=O)N[C@@H](CC(C)C)C(=O)N[C@@H](CCC(N)=O)C(=O)N[C@H](C(N)=O)[C@@H](C)O)[C@H](O)[C@H](O)[C@H]2O)[C@@H](O)[C@H](O)[C@H]1O [EU-A1023, His1-Aib2-Gln3-Gly4-Thr5-Phe6-Thr7-Ser8-Asp9-Tyr10-Ser11-Lys12-Tyr13-Leu14-Asp15-Glu*16-Gln17 Ala18-Ala19-Lys*20-Glu21-Phe22-Ile23-Lys (N-omega (1-dodecyl beta-D-melibiouronyl)) 24-Trp25-Leu26-Leu27-Gln28-Thr29-NH2]
amount of intact compound in the human plasma versus time [2]: essentially no change over 8 hrs
db/db mice - Mean Blood Glucose ([3]; 50 nmole/kg s.c., 0 hr): 507 mg/dL
db/db mice - Mean Blood Glucose ([3]; 50 nmole/kg s.c., 10 hr): 310 mg/dL
db/db mice - Mean Blood Glucose ([3]; 50 nmole/kg s.c., 24 hr): 355 mg/dL
db/db mice - Mean Blood Glucose ([3]; 50 nmole/kg s.c., 48 hr): 375 mg/dL
db/db mice - Mean Blood Glucose ([3]; 250 nmole/kg s.c., 0 hr): 508 mg/dL
db/db mice - Mean Blood Glucose ([3]; 250 nmole/kg s.c., 10 hr): 264 mg/dL
db/db mice - Mean Blood Glucose ([3]; 250 nmole/kg s.c., 24 hr): 194 mg/dL
db/db mice - Mean Blood Glucose ([3]; 250 nmole/kg s.c., 48 hr): 375 mg/dL

CCCCCCCCCCCCCCCCCCO[C@H]1O[C@H](CO[C@H]2O[C@H](C(=O)NCCCC[C@@H]3NC(=O)[C@@H](NC(=O)[C@H](CC(=O)O)NC(=O)[C@H](CC(C)C)NC(=O)[C@H](Cc4ccc(O)cc4)NC(=O)[C@H](CCCCN)NC(=O)[C@H](CO)NC(=O)[C@H](Cc4ccc(O)cc4)NC(=O)[C@H](CC(=O)O)NC(=O)[C@H](CO)NC(=O)[C@@H](NC(=O)[C@H](Cc4ccccc4)NC(=O)[C@@H](NC(=O)CNC(=O)[C@H](CCC(N)=O)NC(=O)C(C)(C)NC(=O)[C@@H](N)Cc4c[nH]cn4)[C@@H](C)O)[C@@H](C)O)CCC(=O)NCCCC[C@@H](C(=O)N[C@@H](CCC(=O)O)C(=O)N[C@@H](Cc4ccccc4)C(=O)N[C@H](C(=O)N[C@@H](CCC(N)=O)C(=O)N[C@@H](Cc4c[nH]c5ccccc45)C(=O)N[C@@H](CC(C)C)C(=O)N[C@@H](CC(C)C)C(=O)N[C@@H](CCC(N)=O)C(=O)N[C@H](C(N)=O)[C@@H](C)O)[C@@H](C)CC)NC(=O)[C@H](C)NC(=O)[C@H](C)NC3=O)[C@H](O)[C@H](O)[C@H]2O)[C@@H](O)[C@H](O)[C@H]1O [EU-A1589, His1-Aib2-Gln3-Gly4-Thr5-Phe6-Thr7-Ser8-Asp9-Tyr10-Ser11-Lys12-Tyr13-Leu14-Asp15-Glu*16Lys (N-omega (1-octadecyl alpha-D-melibiouronyl)) 17 Ala18-Ala19-Lys*20-Glu21-Phe22-Ile23-Gln24-Trp25-Leu26-Leu27-Gln28-Thr29-NH2]
EC50 [4]: 0.655 nM
EC50 [5]: 0.236 nM

CCCCCCCCCCCCO[C@@H]1O[C@H](CO[C@H]2O[C@H](C(=O)NCCCC[C@H](NC(=O)[C@@H](NC(=O)[C@H](Cc3ccccc3)NC(=O)[C@H](CCC(=O)O)NC(=O)[C@@H]3CCCCNC(=O)CC[C@H](NC(=O)[C@H](CC(=O)O)NC(=O)[C@H](CC(C)C)NC(=O)[C@H](Cc4ccc(O)cc4)NC(=O)[C@H](CCCCN)NC(=O)[C@H](CO)NC(=O)[C@H](Cc4ccc(O)cc4)NC(=O)[C@H](CC(=O)O)NC(=O)[C@H](CO)NC(=O)[C@@H](NC(=O)[C@H](Cc4ccccc4)NC(=O)[C@@H](NC(=O)CNC(=O)[C@H](CCC(N)=O)NC(=O)C(C)(C)NC(=O)[C@@H](N)Cc4c[nH]cn4)[C@@H](C)O)[C@@H](C)O)C(=O)N[C@@H](CCC(N)=O)C(=O)N[C@@H](C)C(=O)N[C@@H](C)C(=O)N3)[C@@H](C)CC)C(=O)N[C@@H](Cc3c[nH]c4ccccc34)C(=O)N[C@@H](CC(C)C)C(=O)N[C@@H](CC(C)C)C(=O)N[C@@H](CCC(N)=O)C(=O)N[C@H](C(=O)NCCOCCOCCOCCOCCC(=O)O)[C@@H](C)O)[C@H](O)[C@H](O)[C@H]2O)[C@@H](O)[C@H](O)[C@H]1O [EU-A1639]
EC50 ([4]; read-out: EC50 cAMP glucagon R): 2.29 nM
EC50 [5]: 0.385 nM

CCCCCCCCCCCCO[C@@H]1O[C@H](CO[C@H]2O[C@H](C(=O)NCCCC[C@H](NC(=O)[C@@H](NC(=O)[C@H](Cc3ccccc3)NC(=O)[C@H](CCC(=O)O)NC(=O)[C@@H]3CCCCNC(=O)CC[C@H](NC(=O)[C@H](CC(=O)O)NC(=O)[C@H](CC(C)C)NC(=O)[C@H](Cc4ccc(O)cc4)NC(=O)[C@H](CCCCN)NC(=O)[C@H](CO)NC(=O)[C@H](Cc4ccc(O)cc4)NC(=O)[C@H](CC(=O)O)NC(=O)[C@H](CO)NC(=O)[C@@H](NC(=O)[C@H](Cc4ccccc4)NC(=O)[C@@H](NC(=O)CNC(=O)[C@H](CCC(N)=O)NC(=O)C(C)(C)NC(=O)[C@@H](N)Cc4c[nH]cn4)[C@@H](C)O)[C@@H](C)O)C(=O)N[C@@H](CCC(N)=O)C(=O)N[C@@H](C)C(=O)N[C@@H](C)C(=O)N3)[C@@H](C)CC)C(=O)N[C@@H](Cc3c[nH]c4ccccc34)C(=O)N[C@@H](CC(C)C)C(=O)N[C@@H](CC(C)C)C(=O)N[C@@H](CCC(N)=O)C(=O)N[C@H](C(=O)NCCOCCOCCOCCOCCOCCOCCOCCOCCC(=O)O)[C@@H](C)O)[C@H](O)[C@H](O)[C@H]2O)[C@@H](O)[C@H](O)[C@H]1O [EU-A1651]
EC50 ([4]; read-out: EC50 cAMP glucagon R): 0.149 nM
EC50 [5]: 0.033 nM

CC[C@H](C)[C@H](NC(=O)[C@H](Cc1ccccc1)NC(=O)[C@H](CCC(=O)O)NC(=O)[C@H](CCCCN)NC(=O)[C@H](C)NC(=O)[C@H](C)NC(=O)[C@H](CCC(N)=O)NC(=O)CNC(=O)[C@H](CCC(=O)O)NC(=O)[C@H](CC(C)C)NC(=O)[C@H](Cc1ccc(O)cc1)NC(=O)[C@H](CO)NC(=O)[C@H](CO)NC(=O)[C@@H](NC(=O)[C@H](CC(=O)O)NC(=O)[C@H](CO)NC(=O)[C@@H](NC(=O)[C@H](Cc1ccccc1)NC(=O)[C@@H](NC(=O)CNC(=O)[C@H](CCC(=O)O)NC(=O)[C@H](C)NC(=O)[C@@H](N)Cc1c[nH]cn1)[C@@H](C)O)[C@@H](C)O)C(C)C)C(=O)N[C@@H](C)C(=O)N[C@@H](Cc1c[nH]c2ccccc12)C(=O)N[C@@H](CC(C)C)C(=O)N[C@H](C(=O)N[C@@H](CCCCN)C(=O)NCC(=O)N[C@@H](CCCNC(=N)N)C(N)=O)C(C)C [GIP-1 (7-36), reference compound]
amount of intact compound in the human plasma versus time [2]: rapid decrease
